Test results from patent publication US7772240B2, “Trans-1(6-chloro-3-phenylindan-1-yl)-3,3-dimethylpiperazine” (H. Lundbeck A/S, priority 2003, dated 2010).

Columns and labels:
human CYP2D6 = target: T1, human CYP2D6 (Homo sapiens, UniProt P10635); test: CYP2D6 inhibitor assay (recombinant microsomes, AMMC substrate); format: in vitro ADME; conditions: result in words
T1 construct: purchased BD Biosciences (Gentest) 456217; host or cells: baculovirus/insect cells
Procedure: Principle: The inhibition of human CYP2D6 is assessed using microsomes prepared from baculovirus/insect cells cDNA expressing CYP2D6 as enzyme sources and the specific CYP2D6 substrate AMMC (3-[2-(N,N-diethyl-N-methylammonium)-ethyl]-7-methoxy-4-methylcoumarin). AMMC is O-demethylated to AHMC (3-[2-(N,N-diethylamino)ethyl]-7-hydroxy-4-methylcoumarin) which is detected by measuring appearance of fluorescence.
Microsomes prepared from baculovirus/insect cells cDNA expressing CYP2D6 were obtained from BD Biosciences (Gentest 456217). Fluorescence measured Ex. (405 nm) Em. (465 nm) by a SpectroFluor Plus Plate Reader (Tecan Nordic). Incubations with the recombinant CYP2D6 micrsomes contained 1.5 pmol of the recombinant CYP2D6 in 0.2 ml total volume 100 mM phosphate buffer at pH 7.4 containing […] AMMC (3-[2-(N,N-diethyl-N-methylammonium)-ethyl]-7-methoxy-4-methylcoumarin) with a low NADPH-regenerating system consisting of 0.0082 mM NADP^+, 0.41 mM glucose 6-phosphate, 0.41 mM magnesium chloride and 0.4 units/ml glucose-6-phoshate dehydrogenase. The incubation time was 45 min and the incubations were quenched by addition of 0.075 ml 80% Acetonitrile 20% 0.5 M Tris base. All chemicals were of analytical grade from Sigma (St. Louis, Mo.). […] The IC50 values were calculated by linear interpolation.

D1/D2 = conditions: cited from earlier work
α1 adrenoceptors = conditions: cited from earlier work
5-HT2 = conditions: cited from earlier work
D1 and D2 = conditions: cited from earlier work
human D2 receptor [1] = target: T2, human D2 receptor (Homo sapiens, UniProt P14416); test: DA D2 receptor binding ([3H]-Spiperone)
T2 construct: expressed in transfected cells; host or cells: CHO cells
T2 sequence (P14416 whole entry): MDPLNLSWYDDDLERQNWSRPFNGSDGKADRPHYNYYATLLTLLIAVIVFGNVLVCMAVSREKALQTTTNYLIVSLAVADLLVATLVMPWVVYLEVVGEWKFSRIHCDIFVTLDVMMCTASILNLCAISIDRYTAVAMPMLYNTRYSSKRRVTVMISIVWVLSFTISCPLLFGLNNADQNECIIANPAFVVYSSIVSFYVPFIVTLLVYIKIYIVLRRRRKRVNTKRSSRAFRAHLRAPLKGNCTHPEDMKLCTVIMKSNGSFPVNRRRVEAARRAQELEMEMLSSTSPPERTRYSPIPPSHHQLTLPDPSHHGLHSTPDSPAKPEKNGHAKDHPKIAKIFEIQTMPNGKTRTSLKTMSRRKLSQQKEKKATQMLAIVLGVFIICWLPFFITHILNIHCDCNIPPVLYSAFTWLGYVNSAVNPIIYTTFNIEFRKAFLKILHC
Procedure: (§1) For all assays: Results are expressed as percent inhibition of control specific binding and the IC50 values (concentration causing a half-maximal inhibition of control specific binding) are determined by non-linear regression analysis using Hill equation curve fitting. The inhibition constants (Ki) were calculated from the Cheng Prusoff equation Ki=IC50/(1+(L/KD)), where L equals the concentration of radioligand in the assay) and KD equals the affinity of the radioligand for the receptor.
CHO cells expressing approximately 800 fmol/mg human recombinant D2 receptors were generated standard stable transfection techniques. […] Total binding was determined in the presence of buffer and non-specific binding was determined in the presence of 10 μM haloperidol. The mixture was incubated for 30 minutes at 37° C., cooled briefly on ice. Bound and free radioactivity was separated by vacuum filtration on GF/C filters pretreated with 0.1% Polyetyleneime (PEI) and filters were counted in a scintillation counter.

[2] = QT-interval in the alpha-chloralose anaesthetised rabbit; format: in vivo
Procedure: The model described in the following was originally designed as a proarrhytmic model by Carlsson et al, [J Cardiovasc Pharmacol. 1990;16:276-85.] and has been modified to fit into screening set-up as described below under “animal preparation”.
Male rabbits (HsdIf:NZW, outbreed) weighing 2.0-2.8 kg were purchased from Harlan (The Netherlands). Individual body weights were measured and recorded on the day of experiment. […]
ECG, blood pressure and HR were continuously recorded on a Maclab 8/s using the Chart software v3.6.1 for the Macintosh computer. […] Effects on the electrocardiogram (PQ-, QRS-, QT-, QTc-intervals and heart rate) and mean arterial blood pressure (MAP) were recorded and measured electronically.

5-HT2A receptors = target: T3, 5-HT2A receptors (Homo sapiens, UniProt P28223); test: Serotonin 5-HT2A efficacy assay (Ca2+ fluorescence, CHO cells); format: cell-based
T3 construct: expressed in transfected cells; host or cells: CHO cells
T3 sequence (P28223 whole entry): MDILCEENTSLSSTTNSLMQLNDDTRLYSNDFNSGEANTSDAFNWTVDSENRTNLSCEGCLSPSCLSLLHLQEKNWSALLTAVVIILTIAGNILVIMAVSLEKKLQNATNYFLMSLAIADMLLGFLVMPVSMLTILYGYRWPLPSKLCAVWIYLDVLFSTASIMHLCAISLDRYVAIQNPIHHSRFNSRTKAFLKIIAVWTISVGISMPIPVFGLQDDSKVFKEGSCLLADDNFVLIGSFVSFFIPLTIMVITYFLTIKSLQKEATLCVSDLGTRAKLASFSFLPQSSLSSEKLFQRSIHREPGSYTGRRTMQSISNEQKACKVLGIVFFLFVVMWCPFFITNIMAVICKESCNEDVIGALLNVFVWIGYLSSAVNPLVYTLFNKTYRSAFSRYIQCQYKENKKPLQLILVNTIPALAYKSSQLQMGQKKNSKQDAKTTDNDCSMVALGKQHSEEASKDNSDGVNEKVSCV
Procedure: 2 or 3 days before the experiment, CHO cells expressing 250 fmol/mg S-HT2A receptors are plated at a density sufficient to yield a mono-confluent layer on the day of the experiment. The cells are dye loaded (Ca^2+-kit from Molecular Devices and using Hank's balanced salt w/o phenol red, added 20 mM HEPES and pH adjusted to 7.4 with 2M NaOH as assaybuffer) for 60 minutes at 37° C. in a 5% CO2 incubator at 95% humidity. Lacer intensity is set to a suitable level to obtain basal values of approximately 8000-10000 fluorescence units. The variation in basal fluorescence should be less than 10%. EC50 values are assessed using increasing concentrations of test compound covering at least 3 decades. IC50 values are assessed challenging the same range of concentrations of test substances with EC85 of 5-HT. Test substances are added to the cells 5 minutes before the 5-HT. […] Maximum inhibition is the level of inhibition the curve reaches. It is expressed as the percentage inhibition at that level and used to distinguish full and partial antagonists.

human D1 receptors [3] = target: T4, human D1 receptors (Homo sapiens, UniProt P21728); test: DA D1 efficacy assay, inhibition of D1 mediated cAMP formation in CHO cells; format: cell-based; set-up: expressed in transfected cells; host or cells: CHO cell line generated in-house
T4 sequence (P21728 whole entry): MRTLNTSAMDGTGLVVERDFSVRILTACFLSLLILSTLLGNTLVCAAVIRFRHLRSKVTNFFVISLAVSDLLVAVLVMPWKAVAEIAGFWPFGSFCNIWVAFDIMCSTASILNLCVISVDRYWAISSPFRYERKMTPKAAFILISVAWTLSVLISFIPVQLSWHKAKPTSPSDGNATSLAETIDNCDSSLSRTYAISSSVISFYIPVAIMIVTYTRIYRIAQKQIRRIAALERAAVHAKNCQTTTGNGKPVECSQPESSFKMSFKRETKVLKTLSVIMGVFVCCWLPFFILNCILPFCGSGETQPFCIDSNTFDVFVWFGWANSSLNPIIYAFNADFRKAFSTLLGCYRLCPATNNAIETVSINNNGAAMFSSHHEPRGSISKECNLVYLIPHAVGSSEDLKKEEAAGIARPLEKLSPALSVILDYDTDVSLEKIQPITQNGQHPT
Procedure: The ability of the compounds to inhibit the D1 receptor mediated cAMP formation in a CHO cell line generated in-house stably expressing the human recombinant D1 receptor was measured as follows. Cells were seeded in 96-well plates at a concentration of 11000 cells/well 3 days prior to the experiment. On the day of the experiment the cells were washed once in preheated G buffer (1 mM MgCl2, 0.9 mM CaCl2, 1 mM IBMX in PBS) and the assay was initiated by addition of 100 μl of a mixture of 30 nM A68930 and test compound diluted in G buffer. The cells were incubated for 20 minutes at 37° C. and the reaction was stopped by the addition of 100 μl S buffer (0.1 M HCl and 0.1 mM CaCl2) and the plates were placed at 4° C. for 1 hour. 68 μl N buffer (0.15 M NaOH and 60 mM NaAc) was added and the plates were shaken for 10 minutes. 60 μl of the reaction were transferred to cAMP FlashPlates (DuPont NEN) containing 40 μl 60 mM NaAc pH 6.2 and 100 μl IC mix (50 mM NaAc pH 6.2, 0.1% NaAzid, 12 mM CaCl2, 1% BSA and 0.15 μCi/ml ^125I-cAMP) were added. Following an 18-hour incubation at 4° C. the plates were washed once and counted in a Wallac TrLux counter.

alpha-1 adrenoceptors = test: Alpha-1 adrenoceptor binding ([3H]Prazosin); set-up: species or system rat
Procedure: as §1
Chinese hamster ovary (CHO) cell lines expressing rat alpha1d and Baby hamster Kidney (BHK) cells expressing bovine alpha1a were generated using standard stable transfection techniques. The Rat-1 cell line expressing the hamster alpha1b receptor was obtained from University of Utah, Salt Lake City, Utah. […] Total binding was determined using assay buffer and non-specific binding was defined in the presence of 1 μM WB-4101 for all subtypes of alpha1 receptors. […] In all assays bound and free radioactivity were separated by vacuum filtration on GF/B filters pretreated with Polyetyleneimine (PEI) and counted in a scintillation counter.
By this method, the inhibition by drugs of the binding of [^3H]Prazosin (0.25 nM) to alpha-1 receptors in membranes from rat brain is determined in vitro. […]

human D1 receptors [4] = target: T4, human D1 receptors; test: DA D1 receptor binding ([3H]-SCH23390, Cerep); set-up: host or cells: CHO cells (membranes)
Procedure: For all assays: Results are expressed as percent inhibition of control specific binding and the IC50 values (concentration causing a half-maximal inhibition of control specific binding) are determined by non-linear regression analysis using Hill equation curve fitting. The inhibition constants (Ki) were calculated from the Cheng Prusoff equation Ki=IC50/(1+(L/KD)), where L equals the concentration of radioligand in the assay) and KD equals the affinity of the radioligand for the receptor. Affinities towards human D1 receptors were determined at the contract laboratory Cerep using the catalog reference assay no 803-1h. Membranes from CHO cells expressing human recombinant D1 receptors were used. 0.3 nM [^3H]-SCH23390 was used as radioligand and compounds were tested in a serial dilution concurrently with the reference compound SCH23390 in order to assess the assay suitability. Aliqouts were incubates at 22° C. for 60 min and bound radioactivity are measured with a liquid scintillation counter. Specific control binding to the D1 receptors was defined as the difference between the total binding determined without compound present and the non-specific binding determined in the presence of 1 μm SCH 23390.

human D2 receptor [5] = target: T2, human D2 receptor; test: DA D2 efficacy assay, inhibition of D2 mediated inhibition of cAMP formation in CHO cells; format: cell-based
Procedure: The ability of the compounds to inhibit the D2 receptor mediated inhibition of cAMP formation in CHO cells transfected with the human D2 receptor was measure as follows.
Cells were seeded in 96 well plates at a concentration of 8000 cells/well 3 days prior to the experiment. On the day of the experiment the cells were washed once in preheated G buffer (1 mM MgCl2, 0.9 mM CaCl2, 1 mM IBMX in PBS) and the assay was initiated by addition of 100 μl of a mixture of 1 μM quinpirole, 10 μM forskolin and test compound in G buffer. The cells were incubated 20 minutes at 37° C. and the reaction was stopped by the addition of 100 μl S buffer (0.1 M HCl and 0.1 mM CaCl2) and the plates were placed at 4° C. for 1 hour. 68 μl N buffer (0.15 M NaOH and 60 mM NaAc) were added and the plates were shaken for 10 minutes. 60 μl of the reaction were transferred to cAMP FlashPlates (DuPont NEN) containing 40 μl 60 mM NaAc pH 6.2 and 100 μl IC mix (50 mM NaAc pH 6.2, 0.1% NaAzid, 12 mM CaCl2, 1% BSA and 0.15 μCi/ml ^125I-cAMP) were added. Following an 18-hour incubation at 4° C. the plates were washed once and counted in a Wallac TriLux counter.

T1 sequence (P10635 whole entry): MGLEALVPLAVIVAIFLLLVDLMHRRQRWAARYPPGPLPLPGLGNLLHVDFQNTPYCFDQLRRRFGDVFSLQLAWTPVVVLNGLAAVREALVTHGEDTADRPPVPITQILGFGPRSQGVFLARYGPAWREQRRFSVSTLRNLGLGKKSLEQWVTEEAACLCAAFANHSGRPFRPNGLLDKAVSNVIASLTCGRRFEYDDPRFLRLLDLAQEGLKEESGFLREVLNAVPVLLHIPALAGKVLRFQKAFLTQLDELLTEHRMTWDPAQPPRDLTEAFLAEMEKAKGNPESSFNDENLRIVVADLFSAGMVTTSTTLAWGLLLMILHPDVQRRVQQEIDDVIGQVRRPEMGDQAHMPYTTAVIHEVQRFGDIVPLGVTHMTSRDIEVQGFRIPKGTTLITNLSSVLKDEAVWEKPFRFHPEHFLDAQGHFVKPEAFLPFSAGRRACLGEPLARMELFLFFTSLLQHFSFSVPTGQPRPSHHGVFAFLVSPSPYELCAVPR

Row | Structure (SMILES) | inhibition of CYP2D6 (human CYP2D6) | D1/D2 antagonism in vitro (D1/D2) | affinity for α1 adrenoceptors (α1 adrenoceptors) | 5-HT2 antagonism (5-HT2) | D1 and D2 antagonism in vivo (D1 and D2) | affinity for dopamine D2 receptors (human D2 receptor [1]) | prolonging effect on the QT-interval in the electrocardiogram (ECG) [2] | functional activity at serotonin 5-HT2a receptors (5-HT2A receptors) | functional activity at dopamine D1 receptors (human D1 receptors [3]) | affinity for alfa1 adrenoceptors (alpha-1 adrenoceptors) | affinity for dopamine D1 receptors (human D1 receptors [4]) | functional activity at dopamine D2 receptors (human D2 receptor [5])
1 | CC1(C)CN([C@@H]2C[C@@H](c3ccccc3)c3ccc(Cl)cc32)CCN1 (racemic) [racemate of the compound of the present invention, trans-1-(6-chloro-3-phenylindan-1-yl)-3,3-dimethylpiperazine] | considerable more potent | – | – | – | – | – | – | – | – | – | – | –
2 | CN1CCN([C@@H]2C[C@@H](c3ccccc3)c3ccc(Cl)cc32)CC1(C)C [(−)-38] | – | potent D1/D2 antagonists showing some D1 selectivity | high affinity | potent 5-H T2 antagonist | equipotent as D1 and D2 antagonist | – | – | – | – | – | – | –
3 | CC1(C)CN([C@@H]2C[C@@H](c3ccccc3)c3ccc(Cl)cc32)CCN1 [Compound I, trans-1-((1R,3S)-6-chloro-3-phenylindan-1-yl)-3,3-dimethylpiperazine] | relatively weak inhibitor | – | – | – | – | high affinity | relatively low prolonging effect | antagonist | antagonist | high affinity | high affinity | antagonist
